Columns and labels:
CDK2 = target: T1, CDK2 (Homo sapiens, UniProt P24941); assay: CDK protein degradation activity (Western blotting), CDK2; format: cell-based; conditions: MDA-MB-231 cells, 16 hours, Western blot
T1 construct: endogenous in cells; host or cells: MDA-MB-231
Summary of the method: (§1)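 MDA-MB-231; cmpd 100 nM / 1 μM / 10 μM final vs DMSO, 16 h. Triton X-100 lysates (pH 7.5, phosphatase/protease inhibitors) → SDS-PAGE → Western blot, anti-CDK2, anti-CDK9, tubulin loading control; densitometry.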

CDK9 = target: T2, CDK9 (Homo sapiens, UniProt P50750); assay: CDK protein degradation activity (Western blotting), CDK9; format: cell-based; conditions: MDA-MB-231 cells, 16 hours, Western blot
T2 construct: endogenous in cells; host or cells: MDA-MB-231
Summary of the method: as §1

T2 sequence (P50750 whole entry): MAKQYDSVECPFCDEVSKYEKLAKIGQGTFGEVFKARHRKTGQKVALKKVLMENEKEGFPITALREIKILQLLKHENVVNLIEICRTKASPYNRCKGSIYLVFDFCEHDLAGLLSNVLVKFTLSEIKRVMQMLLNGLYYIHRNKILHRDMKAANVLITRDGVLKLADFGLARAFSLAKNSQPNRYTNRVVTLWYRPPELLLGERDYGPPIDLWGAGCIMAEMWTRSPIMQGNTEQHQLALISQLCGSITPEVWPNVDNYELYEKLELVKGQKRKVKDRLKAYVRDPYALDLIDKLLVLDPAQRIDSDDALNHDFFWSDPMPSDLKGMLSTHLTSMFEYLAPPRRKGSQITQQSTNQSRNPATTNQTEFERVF

| Structure (SMILES) | Enzyme degradation CDK2 (% remaining) @ 0.1 μM (CDK2) | Enzyme degradation CDK2 (% remaining) @ 1 μM (CDK2) | Enzyme degradation CDK2 (% remaining) @ 10 μM (CDK2) | Enzyme degradation CDK9 (% remaining) @ 0.1 μM (CDK9) | Enzyme degradation CDK9 (% remaining) @ 1 μM (CDK9) | Enzyme degradation CDK9 (% remaining) @ 10 μM (CDK9) |
| --- | --- | --- | --- | --- | --- | --- |
| Cc1cccc(C(=O)N[C@H]2C[C@@H](n3cnc4c(Nc5ccc(N6CCN(C7CC8(CCN(c9cc%10c(cc9F)C(=O)N([C@H]9CCC(=O)NC9=O)C%10=O)CC8)C7)CC6)cc5)ncnc43)C2)n1 [Compound 385, N-((1s,3s)-3-(6-((4-(4-(7-(2-(2,6-dioxopiperidin-3-yl)-6-fluoro-1,3-dioxoisoindolin-5-yl)-7-azaspiro[3.5]nonan-2-yl)piperazin-1-yl)phenyl)amino)-9H-purin-9-yl)cyclobutyl)-6-methylpicolinamide] | 40% | 30% | 30% | 0/0/0% | 0/0/0% | 0/0/0% |
| Cc1cccc(C(=O)N[C@H]2C[C@@H](n3cnc4c(Nc5ccc(N6CCN(C7CC8(CCN(c9ccc%10nnn([C@H]%11CCC(=O)NC%11=O)c(=O)c%10c9)CC8)C7)CC6)cc5)ncnc43)C2)n1 [Compound 386, N-((1s,3s)-3-(6-((4-(4-(7-(3-(2,6-dioxopiperidin-3-yl)-4-oxo-3,4-dihydrobenzo[d][1,2,3]triazin-6-yl)-7-azaspiro[3.5]nonan-2-yl)piperazin-1-yl)phenyl)amino)-9H-purin-9-yl)cyclobutyl)-6-methylpicolinamide] | 20% | 10% | 10% | 0/0/0% | 0/0/0% | 0/0/0% |
| Cc1cccc(C(=O)N[C@H]2C[C@@H](n3cnc4c(Nc5ccc(N6CCN(C7CC8(CCN(C(=O)C9CN(c%10ccc%11c(c%10)C(=O)N(C%10CCC(=O)NC%10=O)C%11=O)C9)CC8)C7)CC6)cc5)ncnc43)C2)n1 (stereo partly drawn) [Compound 387, N-((1s,3s)-3-(6-((4-(4-(7-(1-(2-(2,6-dioxopiperidin-3-yl)-1,3-dioxoisoindolin-5-yl)azetidin-3-carbonyl)-7-azaspiro[3.5]nonan-2-yl)piperazin-1-yl)phenyl)amino)-9H-purin-9-yl)cyclobutyl)-6-methylpicolinamide] | 50% | 40% | 40% | 20% | 0% | 0% |
| Cc1cccc(C(=O)NC2CC(n3cnc4c(Nc5ccc(N6CCN(CCC7CCN(C(=O)C8CN(c9ccc%10c(c9)C(=O)N([C@H]9CCC(=O)NC9=O)C%10=O)C8)CC7)CC6)cc5)ncnc43)C2)n1 (stereo partly drawn) [Compound 388, N-((1s,3s)-3-(6-((4-(4-(2-(1-(1-(2-(2,6-dioxopiperidin-3-yl)-1,3-dioxoisoindolin-5-yl)azetidin-3-carbonyl)piperidin-4-yl)ethyl)piperazin-1-yl)phenyl)amino)-9H-purin-9-yl)cyclobutyl)-6-methylpicolinamide] | 40/40/40% | 40/40/40% | 40/40/40% | 0/0/0% | 0/0/0% | 0/0/0% |
| Cc1cccc(C(=O)N[C@H]2C[C@@H](n3cnc4c(Nc5ccc(N6CCN(CCC7CCN(C(=O)C8CCN(c9ccc%10c(c9)C(=O)N([C@H]9CCC(=O)NC9=O)C%10=O)CC8)CC7)CC6)cc5)ncnc43)C2)n1 [Compound 389, N-((1s,3s)-3-(6-((4-(4-(2-(1-(1-(2-(2,6-dioxopiperidin-3-yl)-1,3-dioxoisoindolin-5-yl)piperidin-4-carbonyl)piperidin-4-yl)ethyl)piperazin-1-yl)phenyl)amino)-9H-purin-9-yl)cyclobutyl)-6-methylpicolinamide] | 40% | 30% | 30% | 0/0/0% | 0/0/0% | 0/0/0% |
| O=C1CC[C@H](N2C(=O)c3ccc(N4CCC(CN5CCN(c6ccc(Nc7ncnc8c7ncn8[C@H]7C[C@@H](NC(=O)c8cccc(F)n8)C7)cc6)CC5)CC4)cc3C2=O)C(=O)N1 [Compound 390, N-((1s,3s)-3-(6-((4-(4-((1-(2-(2,6-dioxopiperidin-3-yl)-1,3-dioxoisoindolin-5-yl)piperidin-4-yl)methyl)piperazin-1-yl)phenyl)amino)-9H-purin-9-yl)cyclobutyl)-6-fluoropicolinamide] | 20/20/20% | 20/20/20% | 20/20/20% | 10% | 0% | 0% |

Second part, the molecule after the results:

| Enzyme degradation CDK2 (% remaining) @ 0.1 μM (CDK2) | Enzyme degradation CDK2 (% remaining) @ 1 μM (CDK2) | Enzyme degradation CDK2 (% remaining) @ 10 μM (CDK2) | Enzyme degradation CDK9 (% remaining) @ 0.1 μM (CDK9) | Enzyme degradation CDK9 (% remaining) @ 1 μM (CDK9) | Enzyme degradation CDK9 (% remaining) @ 10 μM (CDK9) | Structure (SMILES) |
| --- | --- | --- | --- | --- | --- | --- |
| 10/10/10% | 10/10/10% | 10/10/10% | 0/0/0% | 0/0/0% | 0/0/0% | O=C1CCC(N2C(=O)c3ccc(N4CCC(CN5CCN(c6ccc(Nc7ncnc8c7ncn8[C@H]7C[C@@H](NC(=O)c8cccc(Cl)n8)C7)cc6)CC5)CC4)cc3C2=O)C(=O)N1 (stereo partly drawn) [Compound 391, 6-chloro-N-((1s,3s)-3-(6-((4-(4-((1-(2-(2,6-dioxopiperidin-3-yl)-1,3-dioxoisoindolin-5-yl)piperidin-4-yl)methyl)piperazin-1-yl)phenyl)amino)-9H-purin-9-yl)cyclobutyl)picolinamide] |
| 0% | 0% | 10% | 0/0/0% | 0/0/0% | 0/0/0% | N#Cc1cccc(C(=O)NC2CC(n3cnc4c(Nc5ccc(N6CCN(CC7CCN(c8ccc9c(c8)C(=O)N([C@H]8CCC(=O)NC8=O)C9=O)CC7)CC6)cc5)ncnc43)C2)n1 (stereo partly drawn) [Compound 392, 6-cyano-N-((1s,3s)-3-(6-((4-(4-((1-(2-(2,6-dioxopiperidin-3-yl)-1,3-dioxoisoindolin-5-yl)piperidin-4-yl)methyl)piperazin-1-yl)phenyl)amino)-9H-purin-9-yl)cyclobutyl)picolinamide] |
| 10/10/10% | 10/10/10% | 10/10/10% | 0/0/0% | 0/0/0% | 0/0/0% | O=C1CC[C@H](N2C(=O)c3ccc(N4CCC(CN5CCN(c6ccc(Nc7ncnc8c7ncn8C7CC(NC(=O)c8cccc(C(F)(F)F)n8)C7)cc6)CC5)CC4)cc3C2=O)C(=O)N1 (stereo partly drawn) [Compound 393, N-((1s,3s)-3-(6-((4-(4-((1-(2-(2,6-dioxopiperidin-3-yl)-1,3-dioxoisoindolin-5-yl)piperidin-4-yl)methyl)piperazin-1-yl)phenyl)amino)-9H-purin-9-yl)cyclobutyl)-6-(trifluoromethyl)picolinamide] |
| 20/20/20% | 20/20/20% | 20/20/20% | 0/0/0% | 0/0/0% | 0/0/0% | O=C1CC[C@H](N2C(=O)c3ccc(N4CC(C(=O)N5CCC(CN6CCN(c7ccc(Nc8ncnc9c8ncn9[C@H]8C[C@@H](NC(=O)c9c(Cl)cccc9Cl)C8)cc7)CC6)CC5)C4)cc3C2=O)C(=O)N1 [Compound 394, 2,6-dichloro-N-((1s,3s)-3-(6-((4-(4-((1-(1-(2-(2,6-dioxopiperidin-3-yl)-1,3-dioxoisoindolin-5-yl)azetidin-3-carbonyl)piperidin-4-yl)methyl)piperazin-1-yl)phenyl)amino)-9H-purin-9-yl)cyclobutyl)benzamide] |
| 20/20/20% | 20/20/20% | 20/20/20% | 0/0/0% | 0/0/0% | 0/0/0% | O=C1CC[C@H](N2C(=O)c3ccc(N4CCC(C(=O)N5CCC(CN6CCN(c7ccc(Nc8ncnc9c8ncn9C8CC(NC(=O)c9c(Cl)cccc9Cl)C8)cc7)CC6)CC5)CC4)cc3C2=O)C(=O)N1 (stereo partly drawn) [Compound 395, 2,6-dichloro-N-((1s,3s)-3-(6-((4-(4-((1-(1-(2-(2,6-dioxopiperidin-3-yl)-1,3-dioxoisoindolin-5-yl)piperidin-4-carbonyl)piperidin-4-yl)methyl)piperazin-1-yl)phenyl)amino)-9H-purin-9-yl)cyclobutyl)benzamide] |
| 20% | 30% | 30% | 20/20/20% | 20/20/20% | 20/20/20% | O=C1CCC(N2C(=O)c3ccc(N4CCC(CN5CCC(CCNc6ncnc7c6ncn7[C@H]6C[C@@H](NC(=O)c7c(Cl)cccc7Cl)C6)CC5)CC4)cc3C2=O)C(=O)N1 (stereo partly drawn) [Compound 396, 2,6-dichloro-N-((1s,3s)-3-(6-((2-(1-((1-(2-(2,6-dioxopiperidin-3-yl)-1,3-dioxoisoindolin-5-yl)piperidin-4-yl)methyl)piperidin-4-yl)ethyl)amino)-9H-purin-9-yl)cyclobutyl)benzamide] |
